Experimental data reported in US20060057669A1, “Inactive transcription factor tif-ia and uses thereof” (priority 2002, published 2006).
Read-outs that look alike come from different tables or passages of the source.

Tested on: Pol I transcription
Assay: Complementation of Pol I transcription in nuclear extracts from rapamycin-treated FM3A cells
Assay type: biochemical
Method: (B) Complementation of transcriptional activity in nuclear extracts from rapamycin-treated cells. Transcription reactions contained nuclear extracts (30 μg) from untreated (NE) or rapamycin-treated (NERapa) FM3A cells. In lanes 3-7, fractions containing partially purified Pol I transcription factors were added to NERapa-containing reactions.
(C) TIF-IA activates transcription in nuclear extracts form rapamycin-treated cells. Reactions were complemented with either 1 μl (lanes 2 and 5) of cellular TIF-IA (PL-650 fraction) or 20 ng (lanes 3 and 6) of immunopurified recombinant TIF-IA that has been expressed in SF9 cells.
(A) mTOR rescues transcription in vitro. Pol I transcription was assayed in nuclear extracts from rapamycin-treated FM3A cells. Reactions were supplemented with 50 ng TIF-IA (lane 1) or 10 ng, 20 ng and 30 ng of HA-mTOR (lanes 3-5).
(B) S6K1 activates Pol I transcription in extracts from rapamycin-treated cells. NERapa was supplemented with 50 ng TIF-IA (lane 1) or 100, 150 and 200 ng of GST-S6K1 (lanes 3-5) or GST-S6K1dd (lanes 6-8).
Nuclear extracts were prepared from exponentially growing (8×10^5 cells/ml), density-arrested or PD98059-treated (CN Bioscience, Bad Soden, Germany) 40 μM, 0.5 hr) or rapamycin-treated FM3A cells (ATCC, Manassas, USA). 25 μl assays contained 50 ng of template DNA (pMr600/EcoRI), 30 μg nuclear extract proteins and 12 mM Hepes-KOH, [pH8.0], 0.1 mM EDTA, 5 mM MgCl2, 80 mM KCl, 10 mM creatine phosphate, 12% (v/v) glycerol, 0.66 mM each of ATP, GTP and CTP, 0.01 mM UTP and 0.5 μCi [α-^32P]UTP (5000 Ci/mmol). After incubation for 60 min at 30° C., RNA was extracted and analyzed on non-denaturing 5% polyacrylamide gels
mTOR and S6K1 were purified from HEK293T cells overexpressing HA-tagged mTOR or GST/myc-tagged S6K1, respectively. 5×10^6 cells were lysed in 0.8 ml IP buffer, centrifuged at 10,000×g for 20 min, and the supernatants were incubated for 4 hr at 4° C. with either 15 μg anti-HA antibodies bound to 20 μl protein G-agarose (for HA-mTOR) or 20 μl packed GST-glutathione beads (for GST-myc-S6K1). […]

## TIF-IA: wild-type human transcription initiation factor TIF-IA, accession No. AJ272050
  rescue of Pol I transcription in extracts from rapamycin-treated cells: relieved rapamycin-mediated transcriptional repression
Listed as recombinant TIF-IA
  rescue of Pol I transcription in extracts from rapamycin-treated cells: restored transcriptional activity
